For experiment [1], the system named is K. pneumoniae, AmpC-overproducing. Nature of the experiment: MIC of third-generation cephalosporins alone and with compounds (Table 6). The format is cell-based, Klebsiella pneumoniae. Conditions: antibiotic alone. On the procedure:
(§1) The anti-resistance activity of inhibitors was investigated by the determination of the minimum inhibitory concentrations (MICs) of the β-lactam/inhibitor combination necessary to inhibit the growth of clinically-isolated bacteria resistant to third-generation cephalosporins via expression of class A or class C β-lactamases (Table 6).
(§2) Susceptibility testing was performed and interpreted following the guidelines of CLSI. (Clinical and Laboratory Standards Institute, Performance standards for antimicrobial susceptibility testing, 20th Informational Supplement, M100-S20 2010) The compounds were dissolved in 50% DMSO, and dilutions were performed using Muller-Hinton medium. An adequate final concentration was obtained to determine the minimum inhibitory concentrations (MICs). The concentration of DMSO was maintained below 5%. The inhibitors were tested for synergy with the third-generation β-lactams ceftazidime and cefotaxime against several clinical bacteria. The ratio of β-lactams to inhibitors was 1:4. Each value reported reflects the average of three independent experiments. […] The Friedman's test and the Wilcoxon signed rank test were used to compare MIC values. Statistical significance was established at p<0.05.
(§3) Table 6. MICs (μg/ml) of third-generation cephalosporins alone and in association with the compounds (ratio 1/4) for clinical bacteria. CTX, cefotaxime and CAZ, ceftazidime. ^1, AmpC-overproducing bacteria; ^2, CTX-M-14-producing E. coli; ^3, KPC-2-producing K. pneumoniae; ^4, OXA-48-producing K. pneumoniae; ^5, NDM-1-producing C. freundii.

In experiment [2] the test system is OXA-48-producing K. pneumoniae. Described as above. The format is cell-based, Klebsiella pneumoniae. The settings on record: antibiotic alone. On the procedure: as §1, §2, §3
In experiment [3] the test system is K. pneumoniae producing the plasmid-mediated class C β-lactamase DHA-1. Nature of the experiment: MIC of third-generation cephalosporins alone and with compounds 4 or 9 (Table 3). The settings on record: antibiotic alone. The class given is cell-based, Klebsiella pneumoniae. From the text: (§4) Antimicrobial activity was investigated quantitatively to determine the minimum inhibitory concentrations (MICs) of the β-lactam/inhibitor combination necessary to inhibit the bacterial growth (Table 3). The MICs of β-lactams alone against the strains corresponded to a high level of resistance according to Clinical and Laboratory Standards Institute (CLSI) standards. (Clinical and Laboratory Standards Institute, Performance standards for antimicrobial susceptibility testing, 20th Informational Supplement, M100-S20 2010) The compounds had no measurable antibiotic activity when used alone.
(§5) Susceptibility testing was performed and interpreted following the guidelines of CLSI. (Clinical and Laboratory Standards Institute, Performance standards for antimicrobial susceptibility testing, 20th Informational Supplement, M100-S20 2010) The compounds were dissolved in 50% DMSO, and dilutions were performed using Muller-Hinton medium. An adequate final concentration was obtained to determine the minimum inhibitory concentrations (MICs). The concentration of DMSO was maintained below 5%. The inhibitors were tested for synergy with the third-generation β-lactams ceftazidime and cefotaxime against several clinical bacteria. […] Each value reported reflects the average of three independent experiments. […] A Klebsiella pneumoniae isolate produced the inducible plasmid-mediated class C enzyme DHA-1. The Friedman's test and the Wilcoxon signed rank test were used to compare MIC values. Statistical significance was established at p<0.05.

In experiment [4] the test system is E. cloacae 135, AmpC-overproducing. Nature of the experiment: MIC of third-generation cephalosporins alone and with compounds (Table 6). The format is cell-based, Enterobacter cloacae. The settings on record: antibiotic alone. On the procedure:
as §1, §2, §3

In experiment [5] the test system is E. cloacae, AmpC-overproducing. Described as above. The settings on record: antibiotic alone. The class given is cell-based, Enterobacter cloacae. The method, then:
as §1, §2, §3

Experiment [6] has as its system E. cloacae overproducing chromosomally-mediated class C β-lactamase. Nature of the experiment: MIC of third-generation cephalosporins alone and with compounds 4 or 9 (Table 3). The format is cell-based, Enterobacter cloacae. Conditions: antibiotic alone.
From the text: as §4, §5

Experiment [7] has as its system P. aeruginosa, AmpC-overproducing. Nature of the experiment: MIC of third-generation cephalosporins alone and with compounds (Table 6). The class given is cell-based, Pseudomonas aeruginosa. Conditions: antibiotic alone. The method, then:
as §1, §2
Table 6. MICs (μg/ml) of third-generation cephalosporins alone and in association with the compounds (ratio 1/4) for clinical bacteria. […]

In experiment [8] the test system is E. coli 145, AmpC-overproducing. The description is as above. The class given is cell-based, Escherichia coli. The settings on record: antibiotic alone. On the procedure: as §1, §2, §3
The subject of experiment [9] is E. coli 144, AmpC-overproducing. Described as above. The format is cell-based, Escherichia coli. Conditions: antibiotic alone. On the procedure:
as §1, §2, §3

The test system of experiment [10] is E. coli, AmpC-overproducing. The experiment is described as above. The class given is cell-based, Escherichia coli. Conditions: antibiotic alone. The method, then:
as §1, §2, §3

Experiment [11] concerns E. coli R1, AmpC-overproducing. The experiment is described as above. Conditions: antibiotic alone. The class given is cell-based, Escherichia coli. The method, then:
as §1, §2, §3

For experiment [12], the system named is E. coli 142, AmpC-overproducing. Described as above. The format is cell-based, Escherichia coli. Conditions: antibiotic alone. On the procedure: as §1, §2, §3
The subject of experiment [13] is CTX-M-14-producing E. coli. Described as above. The class given is cell-based, Escherichia coli. The settings on record: antibiotic alone. The method, then: as §1, §2, §3
For experiment [14], the system named is E. coli 146, AmpC-overproducing. The description is as above. The class given is cell-based, Escherichia coli. Conditions: antibiotic alone. On the procedure:
as §1, §2, §3

Experiment [15] relates to C. freundii overproducing chromosomally-mediated class C β-lactamase. Nature of the experiment: MIC of third-generation cephalosporins alone and with compounds 4 or 9 (Table 3). Conditions: antibiotic alone. The class given is cell-based, Citrobacter freundii.
From the text: as §4, §5

For experiment [16], the system named is E. coli overproducing chromosomally-mediated class C β-lactamase. The experiment is described as above. The class given is cell-based, Escherichia coli. Conditions: antibiotic alone.
From the text: as §4, §5

For experiment [17], the system named is E. coli producing plasmid-mediated class A β-lactamase CTX-M-14. The experiment is described as above. The format is cell-based, Escherichia coli. The settings on record: antibiotic alone.
From the text: as §4, §5

Experiment [18] relates to NDM-1-producing C. freundii. Nature of the experiment: MIC of third-generation cephalosporins alone and with compounds (Table 6). The format is cell-based, Citrobacter freundii. The settings on record: antibiotic alone. On the procedure:
as §1, §2, §3

For experiment [19], the system named is C. freundii 101, AmpC-overproducing. Described as above. The class given is cell-based, Citrobacter freundii. Conditions: antibiotic alone. The method, then: as §1, §2, §3
Experiment [20] concerns C. freundii, AmpC-overproducing. The description is as above. The format is cell-based, Citrobacter freundii. Conditions: antibiotic alone. The method, then: as §1, §2, §3
For experiment [21], the system named is P. aeruginosa overproducing chromosomally-mediated class C β-lactamase. Nature of the experiment: MIC of third-generation cephalosporins alone and with compounds 4 or 9 (Table 3). The format is cell-based, Pseudomonas aeruginosa. Conditions: antibiotic alone.
From the text: as §4, §5

The target of experiment [22] is T1, Elastase (Sus scrofa, UniProt P00772).
T1 construct: IC50 (Estimated from single concentration measurement); Ki
Nature of the experiment: Elastase inhibition. The class given is biochemical. From the text: To assess the selectivity of the new molecules we determined Ki values against three common serine proteases, Trypsin, Elastase and α-Chymotrypsin, as well as that of a class A β-lactamase, CTX-M-9 (Table 10) (Pouvreau L, et al. (1998), FEBS Lett 423:167-172; Del Mar E G, et al. (1980), Biochemistry 19:468-472; Rodriguez-Martinez J A, et al. (2009), Biotechnol Lett 31:883-887; Chen Y, et al. (2005), J Mol Biol 348:349-362).

Experiment [23] addresses CTX-M-9 β-lactamase (Escherichia coli, UniProt Q9L5C8). Nature of the experiment: biochemical. The format is biochemical.
In experiment [24] the target is T2, Trypsin (UniProt P00760).
T2 construct: IC50 (Estimated from single concentration measurement); Ki
T2 sequence (P00760 1-246): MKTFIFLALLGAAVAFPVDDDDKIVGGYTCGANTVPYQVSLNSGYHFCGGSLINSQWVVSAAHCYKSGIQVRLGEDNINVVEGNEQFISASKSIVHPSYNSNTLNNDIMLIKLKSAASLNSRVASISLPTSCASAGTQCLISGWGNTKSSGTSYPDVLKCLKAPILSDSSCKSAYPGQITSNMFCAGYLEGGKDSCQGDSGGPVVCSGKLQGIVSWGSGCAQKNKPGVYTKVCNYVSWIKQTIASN
Nature of the experiment: Trypsin inhibition. The class given is biochemical.

Experiment [25] addresses T3, AmpC β-lactamase (Escherichia coli, UniProt P00811).
T3 construct: made in house
Nature of the experiment: biochemical. The class given is biochemical.

Experiment [26] deals with T4, α-chymotrypsin (bovine pancreatic) (Bos taurus, UniProt P00766).
T4 construct: purchased Sigma-Aldrich
Nature of the experiment: α-Chymotrypsin inhibition. The format is biochemical.

The test system of experiment [27] is AmpC-overproducing Escherichia coli strain 4. Nature of the experiment: Mouse model of bacteremia and sepsis, survival. The class given is in vivo, OF1 mice. The settings on record: 120 h post infection; ip at 0.5, 3.5, 6.5 h; imipenem 50 mg/kg, cefotaxime 50 mg/kg, cefotaxime:CR161 50:200 mg/kg. On the procedure: FIG. 17. Percentage of survival of mice infected with AmpC-overproducing Escherichia coli over the course of 5 days (120 h). Mice were inoculated by intraperitoneal injection with AmpC-overproducing Escherichia coli strain 4 (1±0.5 10^9 colony-forming units) and treated at 0.5, 3.5, 6.5 h after infection by intraperitoneal injection of 50 mg/kg imipenem (□, n=20), 50:200 mg/kg cefotaxime:CR161 combination (▪, n=17), 50 mg/kg cefotaxime (●, n=20) or sterile isotonic saline (◯, n=20).
Efficacy in a mouse model of infection. We had not observed such substantial reversal of bacterial resistance to β-lactams, across such a broad spectrum of clinical isolates, for previous series of boronic acid inhibitors of β-lactamase; indeed, this lack of efficacy had motivated this study. These new cell-culture MIC values inspired us to investigate the efficacy of one of these compounds in a mouse model of bacteremia and sepsis. […] Mice were treated with cefotaxime alone, cefotaxime combined with compound CR161, with sterile isotonic saline, and with imipenem as a reference treatment of systemic infections by cephalosporin-resistant enterobacteriaceae (FIG. 17); 20 mice were used in each clade. […]
OF1 mice 4-5 weeks of age and weighing 20-25 g were used in this study. […] The survival of mice in each group was monitored every 6 h for 5 days after infection. […]

Where [28] appears, read: Table 4e, read-out: IC50 (Estimated from single concentration measurement).
Setting [29] is: Table 4f, read-out: IC50 (from multi- or single concentration measurements).
Where [30] appears, read: Table 4g, read-out: Ki (from multi- or single concentration measurements).

The source of these data is US9371337B2, “β-lactamase inhibitors” (The Regents of the University of California, priority 2011, dated 2016).

Like-named read-outs stand apart in the source and are kept apart here.

CTX-M-9 β-lactamase, sequence (Q9L5C8 29-291): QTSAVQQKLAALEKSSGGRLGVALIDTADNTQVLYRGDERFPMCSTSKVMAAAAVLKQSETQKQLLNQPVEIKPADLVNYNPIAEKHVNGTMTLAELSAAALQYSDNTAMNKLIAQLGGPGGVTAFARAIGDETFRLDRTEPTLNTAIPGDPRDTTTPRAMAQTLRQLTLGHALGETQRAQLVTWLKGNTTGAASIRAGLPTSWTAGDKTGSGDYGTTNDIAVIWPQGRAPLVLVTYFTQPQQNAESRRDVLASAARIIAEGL
T1 sequence (P00772 27-266): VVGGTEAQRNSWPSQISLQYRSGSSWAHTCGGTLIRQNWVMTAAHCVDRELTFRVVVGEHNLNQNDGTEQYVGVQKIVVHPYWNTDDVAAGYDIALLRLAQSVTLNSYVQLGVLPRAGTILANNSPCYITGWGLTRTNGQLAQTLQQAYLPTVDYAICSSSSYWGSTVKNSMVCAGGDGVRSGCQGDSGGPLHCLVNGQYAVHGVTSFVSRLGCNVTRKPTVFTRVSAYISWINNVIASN
T3 sequence (P00811 20-377): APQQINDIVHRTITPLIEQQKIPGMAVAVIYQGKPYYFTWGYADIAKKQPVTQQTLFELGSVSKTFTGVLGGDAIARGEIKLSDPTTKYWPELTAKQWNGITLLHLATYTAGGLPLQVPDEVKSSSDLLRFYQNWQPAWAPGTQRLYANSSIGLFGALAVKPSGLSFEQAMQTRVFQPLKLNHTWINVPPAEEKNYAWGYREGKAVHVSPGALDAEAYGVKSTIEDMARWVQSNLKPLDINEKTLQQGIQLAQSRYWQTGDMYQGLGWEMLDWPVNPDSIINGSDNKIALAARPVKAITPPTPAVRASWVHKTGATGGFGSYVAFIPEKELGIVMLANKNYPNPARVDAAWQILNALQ

`CC(C)(O/N=C(\C(=O)N[C@@H]1C(=O)N2C(C(=O)[O-])=C(C[n+]3ccccc3)CS[C@H]12)c1csc(N)n1)C(=O)O` [Ceftazidime]: the “MIC, cephalosporin alone” value is 32 µg/mL in [1]; 256 µg/mL in experiment [2]; 32 µg/mL in experiment [3]; 128 µg/mL in experiment [4]; 64 µg/mL in experiment [5]; 64 µg/mL in experiment [6]. Moreover, the “MIC, cephalosporin alone” value in experiment [7] came to 32 µg/mL; in experiment [8], 128 µg/mL; in experiment [9], 64 µg/mL; in experiment [10], 128 µg/mL; in [11], 8 µg/mL; in [12], 32 µg/mL. In addition, the “MIC, cephalosporin alone” value in experiment [13] stood at 2 µg/mL; in experiment [14], 64 µg/mL; in [15], 64 µg/mL; in experiment [16], 64 µg/mL; in experiment [17], 2 µg/mL; in [18], 512 µg/mL. Moreover, the “MIC, cephalosporin alone” value in experiment [19] is 128 µg/mL; in experiment [20] it was 64 µg/mL; in [21], 32 µg/mL.
For “Pinacol(chloromethanesulfonylamino)methaneboronate [CR70]”, the “Percentage inhibition with 100 μM inhibitor” value in experiment [22] is 90; in experiment [24] (Table 4c, 100 μM inhibitor) it was 3; in experiment [26] (Table 4c, 100 μM inhibitor), 10. Besides, the “Percentage activity with 100 μM inhibitor” value in experiment [22] (Table 4b, 100 μM inhibitor) is given as 10; in [24] (Table 4b, 100 μM inhibitor) it was 97; in experiment [26] (Table 4b, 100 μM inhibitor), 90. Further, the potency estimated from few doses in experiment [22] (setting [28]) was 11 µM; in experiment [23] (setting [28]), 16 µM; in experiment [24] (setting [28]), 3230 µM; in [26] (setting [28]) it was 900 µM. In addition, the results for the IC50 in experiment [23] (setting [29]) and in experiment [25] (setting [29]) were 16 µM and 1.55 µM, respectively. Further, the Ki came to 5.9 µM in [23] (setting [30]); 5.9 µM in experiment [23] (Table 8, read-out: Ki vs CTX-M-9); 0.3 µM in [25] (setting [30]); 0.31 µM in experiment [25] (Table 7, read-out: Ki Vs AmpC); 0.31 µM in [25] (Table 8, read-out: Ki vs AmpC). Moreover, in experiment [23] (Table 4d, 16 μM inhibitor), the “Percentage inhibition with 16 μM inhibitor” value came out at 50.
For `C[C@@H](O)[C@H]1C(=O)N2C(C(=O)O)=C(SCCN=CN)C[C@H]12` [Imipenem, imipenem], the survival in experiment [27] is 90%.
